# Test results: publication PMC9415947 (Pharmaceuticals, 2022)
# Read-outs that look alike come from different tables or passages of the source.
# Key:
# PI3Kα [1] = target: T1, PI3Kα (Homo sapiens, UniProt P42336); settings: PI3Kδ versus PI3Kα, in words; cited from earlier work
# T1 construct: purchased Merck Millipore (methods text)
# PI3Kδ [2] = target: T2, PI3Kδ (Homo sapiens, UniProt O00329); settings: cited from earlier work
# T2 construct: purchased Merck Millipore
# PI3Kβ = target: T3, PI3Kβ (Homo sapiens, UniProt P42338); test: In vitro PI3K inhibition assay (ADP-Glo kinase assay), PI3Kβ; format: biochemical; settings: for IC50: mean of two independent experiments; for Fold Selectivity β/δ: ratio IC50 PI3Kβ / IC50 PI3Kδ
# T3 construct: purchased Merck Millipore
# T3 sequence (P42338 whole entry, looked up): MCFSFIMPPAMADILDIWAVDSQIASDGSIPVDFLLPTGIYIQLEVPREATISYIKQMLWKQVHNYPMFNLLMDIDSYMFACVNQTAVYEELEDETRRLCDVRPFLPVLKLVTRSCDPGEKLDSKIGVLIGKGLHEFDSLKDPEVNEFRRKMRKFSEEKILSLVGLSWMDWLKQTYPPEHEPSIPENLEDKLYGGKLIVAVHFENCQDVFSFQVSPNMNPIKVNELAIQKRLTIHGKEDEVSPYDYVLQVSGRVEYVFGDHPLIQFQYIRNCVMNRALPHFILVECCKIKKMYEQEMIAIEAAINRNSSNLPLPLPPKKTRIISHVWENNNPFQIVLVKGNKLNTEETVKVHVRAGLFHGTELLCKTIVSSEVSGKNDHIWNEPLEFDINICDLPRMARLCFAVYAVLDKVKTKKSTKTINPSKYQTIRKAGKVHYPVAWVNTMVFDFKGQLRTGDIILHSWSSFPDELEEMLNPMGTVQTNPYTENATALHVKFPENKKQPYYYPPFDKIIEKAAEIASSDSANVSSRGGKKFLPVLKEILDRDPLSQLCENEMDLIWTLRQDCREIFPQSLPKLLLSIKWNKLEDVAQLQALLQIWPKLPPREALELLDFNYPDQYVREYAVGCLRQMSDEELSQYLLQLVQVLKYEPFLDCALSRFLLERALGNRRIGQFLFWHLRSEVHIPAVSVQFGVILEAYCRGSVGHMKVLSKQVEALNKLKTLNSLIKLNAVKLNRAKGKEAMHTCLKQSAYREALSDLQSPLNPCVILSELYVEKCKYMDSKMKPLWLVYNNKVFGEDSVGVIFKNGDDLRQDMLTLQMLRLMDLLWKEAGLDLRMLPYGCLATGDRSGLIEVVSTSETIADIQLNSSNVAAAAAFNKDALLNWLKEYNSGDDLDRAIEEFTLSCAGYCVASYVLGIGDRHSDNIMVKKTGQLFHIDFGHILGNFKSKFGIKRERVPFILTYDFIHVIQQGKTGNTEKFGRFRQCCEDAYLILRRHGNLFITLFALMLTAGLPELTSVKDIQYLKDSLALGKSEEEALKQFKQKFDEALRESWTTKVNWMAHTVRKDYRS
# Protocol: (§1) All compounds were tested in a biochemical assay that measured the inhibition of phosphatidylinositol […] production by PI3K isoforms using the ADP-Glo kinase assay (Promega). In addition, the effects of synthesized compounds on B cell proliferation were measured.
# (§2) The potency and selectivity of compounds were assessed by measuring the ability of PI3K kinases to convert ATP to ADP during an enzymatic reaction in the presence of decreasing doses of tested compounds. The experiments were carried out using the ADP-Glo kinase assay kit (Promega), according to the manufacturer’s protocol. PI3Kα, PI3Kβ, PI3Kδ, and PI3Kγ have been purchased from Merck Millipore and phosphoinositol-4,5-bisphosphate (PIP2) lipid vesicles with phosphoserine from ThermoFisher Scientific were used as a substrate in the enzymatic reaction.
# (§3) After the reaction, the ADP-Glo reagent and the kinase detection reagent were added sequentially with 40 min of incubation (25 °C, 600 rpm) after adding each reagent. Finally, the luminescence intensity was measured and the IC50 was calculated using GraphPad Prism 7 software. The presented results are the mean value of IC50 from at least two independent experiments.
# PI3Kδ [3] = target: T2, PI3Kδ; test: In vitro PI3K inhibition assay (ADP-Glo kinase assay), PI3Kδ; format: biochemical; settings: mean of two independent experiments
# Protocol: as §1, §2, §3
# PI3Kα [4] = target: T1, PI3Kα; test: In vitro PI3K inhibition assay (ADP-Glo kinase assay), PI3Kα; format: biochemical; settings: for Fold Selectivity α/δ: ratio IC50 PI3Kα / IC50 PI3Kδ
# Protocol: as §1, §2, §3
# CD19+ B cells = test: B cell (CD19+) proliferation assay, CFSE flow cytometry; format: cell-based; settings: Homo sapiens, 96 h, read-out: IC50 CD19
# Protocol: CD19 cells were isolated from PBMCs using magnetic beads (Stem Cell (Vancouver, Canada)) and then labeled with 2 µM of CFSE (Invitrogen (Waltham, MA, USA)).
# After 4 days, cells were stained with LIVE/DEAD™ kit (Invitrogen (Waltham, MA, USA)). Samples were acquired using Attune NxT flow cytometer (Invitrogen) and analyzed using FlowJo software. Each biological assay was performed with cells isolated from a different donor. The presented results constitute the average percentage values of proliferating cells from 3 independent experiments.
# Human PBMCs were isolated from buffy coats of healthy donors obtained from the Regional Blood Donation and Blood Medicine Center in Warsaw. Lymphocytes B: CD19+ cells were isolated from PBMCs on magnetic beads (Stem Cell), labeled with 2 µM CFSE (Invitrogen), and seeded on a 96-well plate (1 × 10^5 cells/well). B cells were activated by 2 µg/mL of αIgM (Jackson ImmunoResearch) and 1 µg/mL of ODN2006 (InvivoGen). Cells were incubated with increasing concentrations of compounds (range 0.03–10,000 nM). After 4 days, B cells were stained with LIVE/DEAD™ kit (Invitrogen), acquired using the Attune NxT flow cytometer (Invitrogen), and analyzed using FlowJo10 software. For data normalization, the percentage value of proliferating cells in each sample was divided by the average percentage value of positive control in a single experiment. IC50 values were calculated using a three-parameter dose–response inhibition function in GraphPad Prism.
# PI3Kγ = target: T4, PI3Kγ (Homo sapiens, UniProt P48736); test: In vitro PI3K inhibition assay (ADP-Glo kinase assay), PI3Kγ; format: biochemical; settings: for IC50: mean of two independent experiments; for Fold Selectivity γ/δ: ratio IC50 PI3Kγ / IC50 PI3Kδ
# T4 construct: purchased Merck Millipore
# T4 sequence (P48736 whole entry): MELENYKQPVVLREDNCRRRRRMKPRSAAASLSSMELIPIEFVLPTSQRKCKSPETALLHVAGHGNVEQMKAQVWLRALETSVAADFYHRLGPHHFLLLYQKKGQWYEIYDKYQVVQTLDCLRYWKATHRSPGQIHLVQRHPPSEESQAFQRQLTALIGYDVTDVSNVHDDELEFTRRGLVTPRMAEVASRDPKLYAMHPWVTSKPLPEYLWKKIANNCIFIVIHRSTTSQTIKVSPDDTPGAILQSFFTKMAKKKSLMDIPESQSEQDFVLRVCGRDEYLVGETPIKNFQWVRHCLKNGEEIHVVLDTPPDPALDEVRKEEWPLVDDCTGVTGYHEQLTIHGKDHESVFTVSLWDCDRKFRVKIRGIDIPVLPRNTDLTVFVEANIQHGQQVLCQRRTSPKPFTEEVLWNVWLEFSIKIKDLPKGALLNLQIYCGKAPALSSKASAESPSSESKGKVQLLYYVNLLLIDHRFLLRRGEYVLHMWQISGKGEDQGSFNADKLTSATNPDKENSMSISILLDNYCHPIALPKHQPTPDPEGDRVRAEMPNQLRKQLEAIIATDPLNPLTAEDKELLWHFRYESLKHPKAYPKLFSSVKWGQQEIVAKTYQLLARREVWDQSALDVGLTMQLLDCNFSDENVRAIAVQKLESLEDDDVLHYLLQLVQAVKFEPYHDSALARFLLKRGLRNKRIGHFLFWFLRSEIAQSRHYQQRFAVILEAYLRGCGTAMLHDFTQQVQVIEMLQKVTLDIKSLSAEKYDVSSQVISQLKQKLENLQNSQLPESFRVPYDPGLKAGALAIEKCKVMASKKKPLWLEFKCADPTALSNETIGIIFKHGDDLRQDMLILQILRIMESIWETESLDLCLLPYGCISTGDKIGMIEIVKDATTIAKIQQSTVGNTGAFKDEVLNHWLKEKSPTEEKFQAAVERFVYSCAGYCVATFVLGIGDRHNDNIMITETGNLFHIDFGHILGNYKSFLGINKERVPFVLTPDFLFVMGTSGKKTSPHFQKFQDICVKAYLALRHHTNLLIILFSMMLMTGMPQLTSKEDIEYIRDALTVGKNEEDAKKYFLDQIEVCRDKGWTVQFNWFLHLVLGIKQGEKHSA
# Protocol: as §1, §2, §3
# [5] = Plasma protein binding, mice; format: in vitro ADME; settings: mouse
# Source text: Table 5 Selected parameters measured for CPL302415 (6). | column: Plasma Protein Binding [%] / Mice
# [6] = Metabolic stability in mouse liver microsomes (MLM); format: in vitro ADME, mouse (CD-1)
# [7] = Plasma protein binding, human; format: in vitro ADME
# Source text: Table 5 Selected parameters measured for CPL302415 (6). | column: Plasma Protein Binding [%] / Human
# PAMPA permeability = format: in vitro ADME
# Bioavailability in mice = settings: mouse, in vivo, depending on the formulation form, read-out: bioavailability F
# [8] = Metabolic stability in human liver microsomes (HLM); format: in vitro ADME; settings: read-out: Metabolic Stability HLM t½
# [9] = Kinetic solubility, shake-flask protocol; format: physicochemical; settings: aqueous buffer, kinetic from dmso stock; phosphate-buffered saline pH 7.4, 25 °C
# [10] = Plasma protein binding, monkey; format: in vitro ADME
# Source text: Table 5 Selected parameters measured for CPL302415 (6). | column: Plasma Protein Binding [%] / Monkey
# [11] = Plasma protein binding, rat; format: in vitro ADME
# Source text: Table 5 Selected parameters measured for CPL302415 (6). | column: Plasma Protein Binding [%] / Rat
# [12] = Plasma protein binding, range across species; format: in vitro ADME; settings: human, monkey, mouse, rat, range depending on the species, read-out: plasma protein binding (PPBs)
# Bioavailability in dogs = settings: dog, in vivo, depending on the formulation form, read-out: bioavailability F
# PI3Kδ [13] = target: T2, PI3Kδ; settings: cited from earlier work; remark: listed apart in the source
# [14] = B cell proliferation, activated by αIgM and ODN2006, 4 days
# T1 sequence (P42336 whole entry): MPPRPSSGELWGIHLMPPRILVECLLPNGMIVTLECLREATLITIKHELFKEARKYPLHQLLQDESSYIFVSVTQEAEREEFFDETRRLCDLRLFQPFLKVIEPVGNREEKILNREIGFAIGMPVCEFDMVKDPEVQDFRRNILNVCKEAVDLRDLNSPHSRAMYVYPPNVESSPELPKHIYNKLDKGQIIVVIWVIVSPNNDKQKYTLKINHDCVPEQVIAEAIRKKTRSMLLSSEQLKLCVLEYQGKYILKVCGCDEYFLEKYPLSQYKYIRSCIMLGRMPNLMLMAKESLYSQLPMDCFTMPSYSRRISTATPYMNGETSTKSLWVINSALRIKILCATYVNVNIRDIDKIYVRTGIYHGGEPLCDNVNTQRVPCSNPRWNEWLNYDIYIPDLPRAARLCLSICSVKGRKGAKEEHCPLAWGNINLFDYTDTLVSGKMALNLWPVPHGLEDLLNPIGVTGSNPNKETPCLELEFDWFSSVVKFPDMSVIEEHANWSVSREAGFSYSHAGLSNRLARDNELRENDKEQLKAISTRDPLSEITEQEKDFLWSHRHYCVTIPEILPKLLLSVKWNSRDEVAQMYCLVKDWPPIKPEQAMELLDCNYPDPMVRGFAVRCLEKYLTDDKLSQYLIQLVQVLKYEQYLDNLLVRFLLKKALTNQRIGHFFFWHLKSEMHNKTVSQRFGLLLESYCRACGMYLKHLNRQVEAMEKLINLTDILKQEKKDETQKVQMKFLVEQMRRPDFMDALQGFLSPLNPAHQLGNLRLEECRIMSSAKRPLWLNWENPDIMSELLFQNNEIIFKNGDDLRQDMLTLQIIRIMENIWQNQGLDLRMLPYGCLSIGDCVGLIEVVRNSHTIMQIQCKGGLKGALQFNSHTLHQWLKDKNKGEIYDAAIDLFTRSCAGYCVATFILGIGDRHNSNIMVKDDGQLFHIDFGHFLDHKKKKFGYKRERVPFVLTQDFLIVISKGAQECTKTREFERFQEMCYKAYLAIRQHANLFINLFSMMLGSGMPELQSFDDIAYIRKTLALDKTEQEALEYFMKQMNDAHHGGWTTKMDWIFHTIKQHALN
# T1 sequence (P27986 whole entry partner): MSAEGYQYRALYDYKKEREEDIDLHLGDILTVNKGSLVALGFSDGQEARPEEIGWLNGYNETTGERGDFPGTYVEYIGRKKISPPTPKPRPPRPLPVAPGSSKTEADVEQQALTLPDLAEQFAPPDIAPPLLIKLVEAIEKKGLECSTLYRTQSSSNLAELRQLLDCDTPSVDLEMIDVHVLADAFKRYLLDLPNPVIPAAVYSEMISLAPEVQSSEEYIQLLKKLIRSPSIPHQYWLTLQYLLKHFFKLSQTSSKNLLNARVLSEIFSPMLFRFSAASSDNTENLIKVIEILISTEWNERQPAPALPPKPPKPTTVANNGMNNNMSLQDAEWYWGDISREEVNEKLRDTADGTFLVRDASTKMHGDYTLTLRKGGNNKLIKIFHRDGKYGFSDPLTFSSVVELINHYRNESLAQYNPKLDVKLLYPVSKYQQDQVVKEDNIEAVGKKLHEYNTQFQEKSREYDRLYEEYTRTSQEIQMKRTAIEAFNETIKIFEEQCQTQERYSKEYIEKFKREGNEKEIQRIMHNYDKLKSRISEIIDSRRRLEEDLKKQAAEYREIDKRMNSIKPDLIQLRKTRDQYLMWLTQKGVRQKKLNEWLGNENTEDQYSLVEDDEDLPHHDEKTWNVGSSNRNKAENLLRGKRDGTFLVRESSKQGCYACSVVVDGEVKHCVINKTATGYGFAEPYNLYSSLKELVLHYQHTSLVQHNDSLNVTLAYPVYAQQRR
# T2 sequence (O00329 whole entry, looked up): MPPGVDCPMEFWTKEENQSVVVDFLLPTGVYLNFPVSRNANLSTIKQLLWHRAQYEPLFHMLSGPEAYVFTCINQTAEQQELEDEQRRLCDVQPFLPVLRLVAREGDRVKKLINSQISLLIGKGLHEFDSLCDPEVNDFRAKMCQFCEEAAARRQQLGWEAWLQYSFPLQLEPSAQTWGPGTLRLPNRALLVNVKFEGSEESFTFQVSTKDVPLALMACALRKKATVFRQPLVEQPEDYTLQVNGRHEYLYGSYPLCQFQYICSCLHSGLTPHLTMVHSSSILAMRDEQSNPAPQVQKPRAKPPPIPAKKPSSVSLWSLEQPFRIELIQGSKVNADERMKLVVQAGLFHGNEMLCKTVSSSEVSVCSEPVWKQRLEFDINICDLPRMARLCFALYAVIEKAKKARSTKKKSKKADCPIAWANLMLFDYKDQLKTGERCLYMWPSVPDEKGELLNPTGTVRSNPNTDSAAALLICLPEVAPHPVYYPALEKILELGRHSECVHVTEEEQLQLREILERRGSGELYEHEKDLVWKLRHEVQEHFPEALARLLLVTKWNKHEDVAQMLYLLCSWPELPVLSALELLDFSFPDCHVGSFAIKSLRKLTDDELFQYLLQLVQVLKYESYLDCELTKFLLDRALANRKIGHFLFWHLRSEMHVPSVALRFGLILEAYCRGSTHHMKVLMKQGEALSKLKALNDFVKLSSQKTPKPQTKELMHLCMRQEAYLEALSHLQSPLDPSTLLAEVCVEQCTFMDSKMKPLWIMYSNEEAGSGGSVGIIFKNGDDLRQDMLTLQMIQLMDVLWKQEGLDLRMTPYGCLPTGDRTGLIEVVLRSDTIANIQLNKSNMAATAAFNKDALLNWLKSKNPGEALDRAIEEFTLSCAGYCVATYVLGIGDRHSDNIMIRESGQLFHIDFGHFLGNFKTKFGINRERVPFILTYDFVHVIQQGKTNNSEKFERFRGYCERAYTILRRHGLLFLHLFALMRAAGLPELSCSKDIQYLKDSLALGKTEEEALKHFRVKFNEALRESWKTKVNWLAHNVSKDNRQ
SMILES,IC50 (PI3Kβ) [nM],Fold Selectivity β/δ (PI3Kβ),IC50 (PI3Kδ [3]) [nM],IC50 (PI3Kα [4]) [nM],Fold Selectivity α/δ (PI3Kα [4]),IC50 (CD19+ B cells; [14]) [nM],IC50 (PI3Kγ) [nM],Fold Selectivity γ/δ (PI3Kγ),further results
Cc1cc2nc(-n3c(C(F)F)nc4ccccc43)cc(N3CCOCC3)n2n1 [Compound 1],–,–,–,–,–,–,–,–,selectivity toward the alpha isoform (PI3Kα [1]): poor; IC50 (PI3Kδ [2]): 475 nM
O=C(C1CC1)N1CCN(Cc2cc3nc(-n4c(C(F)F)nc5ccccc54)cc(N4CCOCC4)n3n2)CC1 [Compound 18],47400,1973,24,73,3.0,58,156,6.5,–
"CC(C)(C)N1CCN(Cc2cc3nc(-n4c(C(F)F)nc5ccccc54)cc(N4CCOCC4)n3n2)CC1 [Compound 6, 1-{2-[(4-tert-butylpiperazin-1-yl)methyl]-7-(morpholin-4-yl)pyrazolo[1,5-a]pyrimidin-5-yl}-2-(difluoromethyl)-1H-benzimidazole]",25500,1415,18,1430,79,–,16900,939,"fraction unbound [5]: 0.17; microsomal CLint at 1 μM ([6]; CD-1, read-out: Metabolic Stability MLM CL): 3.7 µL/min/mg; half-life at 1 μM ([6]; CD-1, read-out: Metabolic Stability MLM t½): 6.3 h; fraction unbound [7]: 0.21; IC50 (CD19+ B cells; B-cell): 41 nM; Papp (PAMPA permeability): 13.3 ×10⁻⁶ cm/s; bioavailability (Bioavailability in mice): > 55%; half-life at 1 μM [8]: 2.42 h; solubility kinetic at 24 h [9]: > 500 µM; fraction unbound [10]: 0.19; fraction unbound [11]: 0.18; fraction unbound [12]: 0.17 to 0.21; bioavailability (Bioavailability in dogs): > 90%"
"CC(C)(C(N)=O)N1CCN(Cc2cc3nc(-n4c(C(F)F)nc5ccccc54)cc(N4CCOCC4)n3n2)CC1 [Compound 17, 2-[4-({5-[2-(difluoromethyl)-1H-1,3-benzimidazol-1-yl]-7-(morpholin-4-yl)pyrazolo[1,5-a]pyrimidin-2-yl}methyl)piperazin-1-yl]-2-methylpropanamide]",44800,1444,31,624,20,52,2200,71,–
"CS(=O)(=O)N1CCN(Cc2cc3nc(-c4cccc5[nH]ncc45)nc(N4CCOCC4)c3s2)CC1 [GDC-0941, 2-(1 H -Indazol-4-Yl)-6-(4-Methanesulfonyl-Piperazin-1-Ylmethyl)-4-Morpholin-4-Yl-Thieno [3,2-d]Pyrimidine]",–,–,–,–,–,–,–,–,PI3Kγ/δ selectivity (PI3Kδ [13]): poor
"CS(=O)(=O)N1CCN(Cc2cc3nc(-n4c(C(F)F)nc5ccccc54)cc(N4CCOCC4)n3n2)CC1 [Compound 16, 2-(difluoromethyl)-1-{2-[(4-methanesulfonylpiperazin-1-yl)methyl]-7-(morpholin-4-yl)pyrazolo[1,5-a]pyrimidin-5-yl}-1H-1,3-benzimidazole]",13600,316,43,44,1.0,114,111,2.6,–
